Data reported in patent US20220112479A1, “COMPOUNDS STABILIZING AMYLASES IN LIQUIDS” (BASF SE, priority 2018, published 2022).

What was measured:
Type in all cases: biochemical
Amy1=Stainzyme = assay: amylase storage stability in liquid formulation (pNP release from Ethyliden-blocked-pNPG7); parameters: key: % of activity in reference formulation at time 0; conditions: storage at 37° C.
Summary of the method: (§1)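 Amylase (dosed as active protein) was stored at 37 °C in liquid base formulations with or without test or comparative compounds. Activity at set time points was measured as pNP release (A405) from blocked-pNPG7 with excess α-glucosidase, expressed relative to the reference formulation at time 0.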

Amy2=Amplify = assay: as above; parameters: key: % of activity in reference formulation at time 0; conditions: storage at 37° C.
Summary of the method: as §1

[1] = tested on: Amy3=Stainzyme Plus L (12L); assay: as above; conditions: base formulation II., 1.5 wt % component (a), storage at 37° C.
Protocol: (§2) The storage stability of amylase was assessed at 37° C.
Base test formulations were manufactured by making base formulations I to V by mixing the components according to Table 1.
Amylases used: Amy1=Stainzyme, Amy2=Amplify, Amy3=Stainzyme Plus L (12L)
The respective component (a) or comparative compound was added, if applicable, to the respective base formulation in amounts as indicated in Table 1.
The amount of amylase as provided in Table 1 refers to active protein.
Water was added to accomplish the balance to 100.
(§3) Amylase activity at certain points in time as indicated in Table 2 was measured quantitatively by the release of the chromophore para-nitrophenol (pNP) from the substrate (Ethyliden-blocked-pNPG7, Roche Applied Science 10880078103). The alpha-amylase degrades the substrate into smaller molecules and α-glucosidase (Roche Applied Science 11626329103), which is present in excess compared to the amylase, process these smaller products until pNP is released; the release of pNP, measured via an increase of absorption at 405 nm, is directly proportional to the amylase activity of the sample. Amylase standard: Termamyl 120 L (Sigma 3403).
(§4) The amylolytic activity values provided were calculated referring to the value determined in the reference formulation at the time 0.
(§5) The nomenclature of formulations is as follows: the Roman number before the full stop characterizes the base formulation, the Arabian number the type of compound (A.# compound according to invention (component (a)); B.# comparative compound).

Amylase = assay: amylase storage stability in liquid laundry formulation (pNP release from Ethyliden-blocked-pNPG7); parameters: key: % of activity in reference formulation at time 0; conditions: laundry base formulation VII. (2.0 EDTA), 2.5 wt % component (a), storage at 37° C.
Protocol: as §2
Base test formulations were manufactured by making base formulations VI to IX by mixing the components according to Table 4.
as §3, with “Table 5” for “Table 2”
as §4, §5

Substance: Diethylcitrate [A.7]
- amylase activity, referring to reference formulation at time 0 (Amy1=Stainzyme; base formulation I., 1.5 wt % component (a), 3 d): 96
- amylase activity, referring to reference formulation at time 0 (Amy1=Stainzyme; base formulation I., 1.5 wt % component (a), 7 d): 86
- amylase activity, referring to reference formulation at time 0 (Amy1=Stainzyme; base formulation I., 1.5 wt % component (a), 14 d): 81
- amylase activity, referring to reference formulation at time 0 (Amy1=Stainzyme; base formulation I., 1.5 wt % component (a), 21 d): 74
- amylase activity, referring to reference formulation at time 0 (Amy1=Stainzyme; base formulation I., 1.5 wt % component (a), 28 d): 63
- amylase activity, referring to reference formulation at time 0 (Amy1=Stainzyme; base formulation I., 1.5 wt % component (a), 42 d): 50
- amylase activity, referring to reference formulation at time 0 (Amy1=Stainzyme; base formulation I., 1.5 wt % component (a), T0): 99
- amylase activity, referring to reference formulation at time 0 (Amy1=Stainzyme; base formulation IV., 2.0 wt % component (a), 3 d): 94
- amylase activity, referring to reference formulation at time 0 (Amy1=Stainzyme; base formulation IV., 2.0 wt % component (a), 7 d): 88
- amylase activity, referring to reference formulation at time 0 (Amy1=Stainzyme; base formulation IV., 2.0 wt % component (a), 14 d): 82
- amylase activity, referring to reference formulation at time 0 (Amy1=Stainzyme; base formulation IV., 2.0 wt % component (a), 21 d): 74
- amylase activity, referring to reference formulation at time 0 (Amy1=Stainzyme; base formulation IV., 2.0 wt % component (a), 28 d): 63
- amylase activity, referring to reference formulation at time 0 (Amy1=Stainzyme; base formulation IV., 2.0 wt % component (a), 42 d): 52
- amylase activity, referring to reference formulation at time 0 (Amy1=Stainzyme; base formulation IV., 2.0 wt % component (a), T0): 99
- amylase activity, referring to reference formulation at time 0 (Amy2=Amplify; base formulation III., 1.5 wt % component (a), 3 d): 96
- amylase activity, referring to reference formulation at time 0 (Amy2=Amplify; base formulation III., 1.5 wt % component (a), 7 d): 91
- amylase activity, referring to reference formulation at time 0 (Amy2=Amplify; base formulation III., 1.5 wt % component (a), 14 d): 85
- amylase activity, referring to reference formulation at time 0 (Amy2=Amplify; base formulation III., 1.5 wt % component (a), 21 d): 78
- amylase activity, referring to reference formulation at time 0 (Amy2=Amplify; base formulation III., 1.5 wt % component (a), 28 d): 70
- amylase activity, referring to reference formulation at time 0 (Amy2=Amplify; base formulation III., 1.5 wt % component (a), 42 d): 60
- amylase activity, referring to reference formulation at time 0 (Amy2=Amplify; base formulation III., 1.5 wt % component (a), T0): 98
- amylase activity, referring to reference formulation at time 0 (Amy2=Amplify; base formulation V., 2.0 wt % component (a), 3 d): 96
- amylase activity, referring to reference formulation at time 0 (Amy2=Amplify; base formulation V., 2.0 wt % component (a), 7 d): 87
- amylase activity, referring to reference formulation at time 0 (Amy2=Amplify; base formulation V., 2.0 wt % component (a), 14 d): 74
- amylase activity, referring to reference formulation at time 0 (Amy2=Amplify; base formulation V., 2.0 wt % component (a), 21 d): 63
- amylase activity, referring to reference formulation at time 0 (Amy2=Amplify; base formulation V., 2.0 wt % component (a), 28 d): 55
- amylase activity, referring to reference formulation at time 0 (Amy2=Amplify; base formulation V., 2.0 wt % component (a), 42 d): 47
- amylase activity, referring to reference formulation at time 0 (Amy2=Amplify; base formulation V., 2.0 wt % component (a), T0): 98
- amylase activity, referring to reference formulation at time 0 ([1]; 3 d): 94
- amylase activity, referring to reference formulation at time 0 ([1]; 7 d): 86
- amylase activity, referring to reference formulation at time 0 ([1]; 14 d): 82
- amylase activity, referring to reference formulation at time 0 ([1]; 21 d): 72
- amylase activity, referring to reference formulation at time 0 ([1]; 28 d): 64
- amylase activity, referring to reference formulation at time 0 ([1]; 42 d): 53
- amylase activity, referring to reference formulation at time 0 ([1]; T0): 99
- amylase activity, referring to reference formulation at time 0 (Amylase; 3 d): 90
- amylase activity, referring to reference formulation at time 0 (Amylase; 7 d): 82
- amylase activity, referring to reference formulation at time 0 (Amylase; 14 d): 69
- amylase activity, referring to reference formulation at time 0 (Amylase; 21 d): 62
- amylase activity, referring to reference formulation at time 0 (Amylase; 28 d): 56
- amylase activity, referring to reference formulation at time 0 (Amylase; T0): 99
